Laboratory results reported in PMC9673926, “Nucleotide binding as an allosteric regulatory mechanism for Akkermansia muciniphila β-N-acetylhexosaminidase Am2136” (Gut Microbes, 2022).
Changes are numbered by the printed parent chain.

Legend:
[1] = target: T1, Am2136 R256A (Akkermansia muciniphila, UniProt B2UPR7, R256A); assay: GDP regulated enzyme activity assay, mutant; conditions: 1 mM GDP, substrate pNP-β-GlcNAc
T1 sequence (B2UPR7 20-756 R256A): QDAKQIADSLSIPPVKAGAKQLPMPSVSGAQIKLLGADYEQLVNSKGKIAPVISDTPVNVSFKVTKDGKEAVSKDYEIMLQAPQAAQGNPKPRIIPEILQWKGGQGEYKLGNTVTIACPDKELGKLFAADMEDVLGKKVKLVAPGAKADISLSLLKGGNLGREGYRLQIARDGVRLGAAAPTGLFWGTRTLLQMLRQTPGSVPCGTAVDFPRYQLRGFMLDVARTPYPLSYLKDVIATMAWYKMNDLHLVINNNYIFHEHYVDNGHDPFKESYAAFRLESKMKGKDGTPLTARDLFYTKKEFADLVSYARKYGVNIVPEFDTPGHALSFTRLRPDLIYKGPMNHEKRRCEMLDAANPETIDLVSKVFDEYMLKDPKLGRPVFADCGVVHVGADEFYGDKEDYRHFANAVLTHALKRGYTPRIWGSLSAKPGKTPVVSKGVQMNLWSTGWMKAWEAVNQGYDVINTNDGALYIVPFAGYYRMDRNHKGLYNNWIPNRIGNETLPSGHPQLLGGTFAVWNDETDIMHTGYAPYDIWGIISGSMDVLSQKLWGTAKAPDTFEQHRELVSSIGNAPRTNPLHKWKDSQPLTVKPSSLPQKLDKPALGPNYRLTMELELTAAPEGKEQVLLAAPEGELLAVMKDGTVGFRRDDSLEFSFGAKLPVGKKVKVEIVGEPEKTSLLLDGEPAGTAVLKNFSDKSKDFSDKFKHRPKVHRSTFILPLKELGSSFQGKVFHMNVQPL

[2] = target: T2, Am2136 WT (Akkermansia muciniphila, UniProt B2UPR7); assay: Enzyme activity assay (pNP-β-GlcNAc hydrolysis) regulated by nucleotides; type: biochemical
T2 construct: The coding region (residue Q20-L756) of Am2136 without signal peptide was based on UniProt; 6XHis (N); made in house; host or cells: E. coli BL21 (DE3)

[3] = target: T3, Am2136 E649A (Akkermansia muciniphila, UniProt B2UPR7, E649A); assay: GDP regulated enzyme activity assay, mutant; conditions: 1 mM GDP, substrate pNP-β-GlcNAc
T3 sequence (B2UPR7 20-756 E649A): T1 sequence (B2UPR7 20-756 R256A) with A237R, E630A

[4] = target: T4, Am2136 Y550A (Akkermansia muciniphila, UniProt B2UPR7, Y550A); assay: GDP regulated enzyme activity assay, mutant; conditions: 1 mM GDP, substrate pNP-β-GlcNAc
T4 sequence (B2UPR7 20-756 Y550A): T1 sequence (B2UPR7 20-756 R256A) with A237R, Y531A

T2 sequence (B2UPR7 20-756): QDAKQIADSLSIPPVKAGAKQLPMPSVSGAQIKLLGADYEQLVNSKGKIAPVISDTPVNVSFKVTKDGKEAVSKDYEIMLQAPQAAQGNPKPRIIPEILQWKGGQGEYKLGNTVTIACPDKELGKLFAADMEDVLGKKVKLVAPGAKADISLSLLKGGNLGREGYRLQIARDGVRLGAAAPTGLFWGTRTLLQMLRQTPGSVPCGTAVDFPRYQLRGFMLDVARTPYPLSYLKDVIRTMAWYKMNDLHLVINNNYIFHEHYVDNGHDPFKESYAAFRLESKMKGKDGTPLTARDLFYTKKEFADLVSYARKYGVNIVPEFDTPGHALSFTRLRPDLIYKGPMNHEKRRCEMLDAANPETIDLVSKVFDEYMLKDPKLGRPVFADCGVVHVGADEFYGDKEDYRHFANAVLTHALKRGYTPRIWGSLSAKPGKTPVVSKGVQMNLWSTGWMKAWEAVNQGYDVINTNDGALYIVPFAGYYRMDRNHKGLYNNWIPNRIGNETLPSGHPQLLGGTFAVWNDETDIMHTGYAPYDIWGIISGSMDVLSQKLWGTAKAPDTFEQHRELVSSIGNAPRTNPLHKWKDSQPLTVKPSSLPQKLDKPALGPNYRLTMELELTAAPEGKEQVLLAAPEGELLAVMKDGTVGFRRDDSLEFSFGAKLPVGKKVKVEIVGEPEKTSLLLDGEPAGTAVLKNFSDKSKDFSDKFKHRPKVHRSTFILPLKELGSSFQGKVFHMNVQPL

Which Vmax [1] does the source give for `Nc1nc2c(ncn2[C@@H]2O[C@H](COP(=O)(O)OP(=O)(O)O)[C@@H](O)[C@H]2O)c(=O)[nH]1` [GDP] here?
The Vmax was 465 ± 15 µmol/min.

And the “maximal activation of Am2136” value ([2]; 1 mM GDP)?
Its value is “up to twofold”.

And the “effect on Am2136 hydrolysis activity” value ([2]; GDP 0–2.65 mM, substrate pNP-β-GlcNAc)?
Its value is “concentration-dependent enhancement”.

And the Vmax ([2]; WT, 1 mM nucleotide, substrate pNP-β-GlcNAc, 37°C)?
The Vmax was 442 ± 7 µmol/min.

And the Vmax [3]?
The Vmax was 453 ± 6 µmol/min.

And the Vmax [4]?
Its Vmax is 463 ± 7 µmol/min.
